In US10960087B2, “Compositions and methods for treatment of diabetic retinopathy” (NOVARTIS AG, priority 2007, dated 2021):

test system: HuT 78 cell adhesion to 5dICAM-Ig; assay: Human T-cell adhesion assay (HuT 78); assay type: cell-based; conditions: HuT78, HuT 78 adhesion to 5dICAM-Ig
Method: The T-cell adhesion assay was performed using the human T-lymphoid cell line HuT 78 (ATCC TIB-161). Goat anti-HuIgG(Fc) was diluted to 2 μg/ml in PBS and 96-well plates were coated with 50 μl/well at 37° C. for 1 h. Plates were washed with PBS and blocked for 1 h at room temperature with 1% BSA in PBS. 5 domain ICAM-Ig was diluted to 100 ng/ml in PBS and 50 μl/well was added to the plates 0/N at 4° C. HuT 78 cells were centrifuged at 100 g and the cell pellet was treated with 5 mM EDTA for ˜5′ at 37° C. in a 5% CO2 incubator. Cells were washed in 0.14 M NaCl, 0.02 M Hepes, 0.2% glucose and 0.1 mM MnCl2 (assay buffer) and centrifuged. The cells were resuspended in assay buffer to 3.0×10^6 c/ml. Inhibitors were diluted in assay buffer to a 2× final concentration and pre-incubated with HuT78 cells for 30′ at room temperature. 100 μl/well of cells and inhibitors were added to the plates and incubated at room temperature for 1 h. 100 μl/well PBS was added and the plates were sealed and centrifuged inverted at 100 g for 5′. Unattached cells were flicked out of the plate and excess PBS was blotted on a paper towel. 60 μl/well p-nitrophenyl n-acetyl-β-D-glucosaminide (0.257 g to 100 ml citrate buffer) was added to the plate and incubated for 1.5 h at 37° C. The enzyme reaction was stopped with 90 μI/well 50 mM glycine/5 mM EDTA and read on a platereader at […]. HUT 78 cell adhesion to 5dICAM-Ig was measured using the p-nitrophenyl n-acetyl-.β-D-glucosaminide method of Landegren, U. (1984). J. Immunol. Methods 57, 379-388.

`O=C(N[C@@H](Cc1c[nH]cn1)C(=O)O)c1c(Cl)cc2c(c1Cl)CCN(C(=O)c1ccc(Cl)cc1)C2` [Compound 1] and `CS(=O)(=O)c1nc(C[C@H](NC(=O)c2c(Cl)cc3c(c2Cl)CCN(C(=O)c2ccc(Cl)cc2)C3)C(=O)O)c[nH]1` [Compound 7] cannot be ordered by EC50: no more than 300 nM for the first, no more than 50 nM for the second.

`O=C(N[C@@H](CNc1ncnc2ccccc12)C(=O)O)c1c(Cl)cc2c(c1Cl)CCN(C(=O)c1ccc(Cl)cc1)C2` [Compound 3] and `O=C(NC[C@H](NC(=O)c1c(Cl)cc2c(c1Cl)CCN(C(=O)c1ccc(Cl)cc1)C2)C(=O)O)c1ccccc1` [Compound 5] cannot be ordered by EC50: no more than 50 nM for the first, no more than 50 nM for the second.

`C=C(C)c1cn(C[C@H](NC(=O)c2c(Cl)cc3c(c2Cl)CCN(C(=O)c2ccc(Cl)cc2)C3)C(=O)O)nn1` [Compound 4] and `O=C(N[C@@H](Cn1cc(CO)nn1)C(=O)O)c1c(Cl)cc2c(c1Cl)CCN(C(=O)c1ccc(Cl)cc1)C2` [Compound 8] cannot be ordered by EC50: no more than 100 nM for the first, no more than 100 nM for the second.

`O=C(NC[C@H](NC(=O)c1cc2c(cc1Cl)C(=O)N(Cc1ccccc1)CC2)C(=O)O)c1cccs1` [Compound 11] and `O=C(NC[C@H](NC(=O)c1c(Cl)cc2c(c1Cl)CCN(C(=O)c1cc3ccccc3o1)C2)C(=O)O)c1cccs1` [Compound 38] cannot be ordered by EC50: no more than 3000 nM for the first, no more than 50 nM for the second.

`O=C(NC[C@H](NC(=O)c1c(Cl)cc2c(c1Cl)CCN(C(=O)c1ccc3cc[nH]c3c1)C2)C(=O)O)c1cccs1` [Compound 13] and `O=C(NC[C@H](NC(=O)c1c(Cl)cc2c(c1Cl)CCN(C(=O)c1ccc3cn[nH]c3c1)C2)C(=O)O)c1cccs1` [Compound 34] cannot be ordered by EC50: no more than 50 nM for the first, no more than 50 nM for the second.

`C[S+]([O-])c1cncc(C[C@H](NC(=O)c2c(Cl)cc3c(c2Cl)CCN(C(=O)c2ccc4ccoc4c2)C3)C(=O)O)c1` (stereo partly shown) [Compound 14] and `CS(=O)(=O)c1cncc(C[C@H](NC(=O)c2c(Cl)cc3c(c2Cl)CCN(C(=O)c2ccc4ccoc4c2)C3)C(=O)O)c1` [Compound 33] cannot be ordered by EC50: no more than 50 nM for the first, no more than 50 nM for the second.

`O=C(NC[C@H](NC(=O)c1c(Cl)cc2c(c1Cl)CCN(C(=O)c1ccc(Cl)cc1)C2CO)C(=O)O)c1cccs1` (stereo partly shown) [Compound 17] and `O=C(NC[C@H](NC(=O)c1c(Cl)cc2c(c1Cl)CCN(C(=O)c1ccc(Cl)c(Cl)c1)C2)C(=O)O)c1cccs1` [Compound 18] cannot be ordered by EC50: no more than 50 nM for the first, no more than 50 nM for the second.

`CS(=O)(=O)c1ccn(C[C@H](NC(=O)c2c(Cl)cc3c(c2Cl)CCN(C(=O)c2ccc4ccoc4c2)C3)C(=O)O)c1` [Compound 22] and `Cc1oc(C[C@H](NC(=O)c2c(Cl)cc3c(c2Cl)CCN(C(=O)c2ccc4ccoc4c2)C3)C(=O)O)cc1S(C)(=O)=O` [Compound 30] cannot be ordered by EC50: no more than 50 nM for the first, no more than 50 nM for the second.

`CS(=O)(=O)N1CCC=C(C[C@H](NC(=O)c2c(Cl)cc3c(c2Cl)CCN(C(=O)c2ccc4ccoc4c2)C3)C(=O)O)C1` [Compound 23] and `CS(=O)(=O)c1cccc(C[C@H](NC(=O)c2c(Cl)cc3c(c2Cl)CCN(C(=O)c2ccc(Cl)cc2)C3)C(=O)O)c1` [Compound 28] cannot be ordered by EC50: no more than 50 nM for the first, no more than 50 nM for the second.

`CC(C)n1cc(C[C@H](NC(=O)c2c(Cl)cc3c(c2Cl)CCN(C(=O)c2ccc(Cl)cc2)C3)C(=O)O)nn1` [Compound 24] and `CS(=O)(=O)Nc1ccccc1NC[C@H](NC(=O)c1c(Cl)cc2c(c1Cl)CCN(C(=O)c1ccc(Cl)cc1)C2)C(=O)O` [Compound 39] cannot be ordered by EC50: no more than 100 nM for the first, no more than 50 nM for the second.

`N#CN=C(NC[C@H](NC(=O)c1c(Cl)cc2c(c1Cl)CCN(C(=O)/C=C/c1ccccc1O)C2)C(=O)O)N1CC[C@H](O)C1` [Compound 26] and `CS(=O)(=O)n1cc(C[C@H](NC(=O)c2c(Cl)cc3c(c2Cl)CCN(C(=O)/C=C/c2ccco2)C3)C(=O)O)c2ccccc21` [Compound 40] cannot be ordered by EC50: no more than 50 nM for the first, no more than 300 nM for the second.

`CS(=O)(=O)c1cccc(C[C@H](NC(=O)c2c(Cl)cc(CCC(O)c3ccc(Cl)cc3)cc2Cl)C(=O)O)c1` (stereo partly shown) [Compound 37] and `CS(=O)(=O)c1cccc(C[C@H](NC(=O)c2c(Cl)cc(CNC(=O)/C=C/c3ccccc3O)cc2Cl)C(=O)O)c1` [Compound 43] cannot be ordered by EC50: no more than 100 nM for the first, no more than 50 nM for the second.

Work on `O=C(CCc1cc(Cl)c(C(=O)N[C@@H](CNC(=O)c2cccs2)C(=O)O)c(Cl)c1)c1cccc(O)c1` [Compound 47] yielded an EC50 of no more than 50 nM.
